# Measurements published in patent publication US9447083B2, “N-acylhydrazone derivatives for selective T cell inhibitor and anti-lymphoid malignancy drug” (CHONG KUN DANG PHARMACEUTICAL CORP., priority 2012, dated 2016).
# How the values were obtained:
# [1] = tested on: Experimental Autoimmune Encephalomyelitis (EAE); assay: Experimental Autoimmune Encephalomyelitis (EAE) model of multiple sclerosis; assay type: in vivo, mouse
# Experimental: At the first day of induction, myelin oligodendrocyte glycoprotein35-55 (MOG35-55, Peptron) (200 ug), mycobacterium tuberculosis (Difco, Cat No. 231141) (500 μg) and complete Freund's adjuvant (Sigma Aldrich, Cat No. F5506) were mixed with each other and immersed for 5 minutes. 0.1 mL of the immersed peptide was injected subcutaneously into both the flanks of each of C57BL/6 mice (9 week old, female, 18±2 g), followed by that […] pertussis toxin (Sigma Aldrich, Cat No. P2980) (200 ng) was injected by intravenously. At 2 days, the same amount of pertussis toxin was administered intravenously. Whether the immersion leaked from the injected portion of the mice was checked, and whether EAE was induced was also examined by visual observation from 7 days.
# Compound 229 and Fingolimod that is currently clinically used for the treatment of multiple sclerosis were completely dissolved in a Cremophor EL-ethanol mixture (1:1, v/v) in an amount corresponding to 7.5% (v/v) of the administration volume, and the compound solution was diluted in PBS. The two groups of the mice were administered orally with 200 μL of the diluted solution of compound 229 at each doses of 25 and 50 mg/kg separately, and the third group of the mice was administered orally with 200 μL of the diluted solution of fingolimode at a dose of 1 mg/kg on a daily basis from 17 days to 37 days (for total 21 times) after starting of the experiment. In a vehicle control group, 200 μL of a Cremophor EL-ethanol-PBS mixture (3.75:3.75:92.5, v/v/v) was administered to each mouse in the same manner as the treated group. The index of EAE was recorded daily based on visual observation using a severity index system (6-point (0 to 5) scale) from 7 days of the experiment. The symptoms of multiple sclerosis were evaluated based on the following criteria:
# 2: limp tail and hind limb weakness;
# 4: hind limb paralysis and forelimb weakness; and […]
# Jurkat = assay: Apoptosis of lymphoid malignancy cell lines (Annexin V / 7-AAD): Jurkat; assay type: cell-based; conditions: Homo sapiens, Acute T cell leukemia, 24 hours, read-out: Administration Dose (mean ± SD, μmol/L) Lethal Dose 50 (Apoptosis)
# Experimental: Each of the acute T cell leukemia cell lines Jurkat, Molt4 and CCRF-CEM, the acute B cell leukemia cell line Raji and the […] cell lines KMS11, KMS12BM, KMS26, KMS28BM, and IM9 was re-suspended in 10% FBS-containing RPMI medium at a concentration of 1.5×10^5 cells/mL, and 200 μL of each of the cell suspensions was cultured in a flat bottom 96-well plate (Costar). The acute NK cell lymphoma cell line NK-92MI was re-suspended in α-MEM medium (supplemented with 20% FBS, 1×MEM vitamine solution, 50 μM 2-mercaptoethanol and 1× penicillin/streptomycin) at a concentration of 1.5×10^5 cells/mL, and 200 μL of the cell suspension was cultured in a flat bottom 96-well plate. The cells in each well was treated with 10 μL of each of 0.1, 0.25, 0.5, 0.75 and 1 μM of the compound diluted with RPMI medium, followed by that the cells were incubated in a 5% CO2 incubator at 37° C. for 24 hours. In a vehicle control group, cells were treated with 10 μL of medium containing 0.05% dimetylsulfoxide (DMSO, Sigma).
# The cells were collected, and then the apoptosis thereof was analyzed by a flow cytometer after staining with Annexin V-7-AAD. The incubated cells were collected, placed in a 5-mL FACS tube (BD Falcon) and washed with 1 mL of fluorescence activated cell sorting (FACS) buffer (1%. FBS and 0.1% sodium azaide in PBS). The cells were re-suspended in 0.1 mL of FACS buffer, followed by that the cells were treated and stained with phycoerythrin-Annexin V at room temperature for 10 minutes. After 10 minutes of staining, the cells were treated and stained with 7-AAD at room temperature for 5 minutes. The stained cells were suspended in 0.3 mL of FACS buffer, and then analyzed by a flow cytometer. […] Thus, compounds 065, 108, 229 and 457 of the present invention can be used as a novel anti-lymphoid malignancy drug.
# Jurkat T cells = assay: Pro-apoptotic activity on Jurkat T cells (FITC-Annexin V / 7-AAD flow cytometry); assay type: cell-based; conditions: Homo sapiens, 72 hours, cells stained with FITC-Annexin V and 7-AAD among total cells, read-out: Cell Apoptosis Effect to Jurkat T Cell (% in 5 μM)
# Method in brief: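 Jurkat cells at 1.5×10^5 cells/mL in RPMI/10% FBS treated with compounds at […] or 5 μM final for 72 h at 37° C, vehicle containing 1% DMSO. Stained with FITC-Annexin V and 7-AAD for 15 min at room temperature in pH 7.4 Hepes binding buffer. Apoptosis = % double-stained cells by flow cytometry.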
compound,measurement,setting,value
"Cc1cc(C)c(OCC(=O)N/N=C/c2ccc3cc[nH]c3c2)c(C2CCOC2)c1 (stereo not drawn) [Compound 229, (E)-N′-((1H-indol-6-yl)methylene)-2-(2,4-dimethyl-6-(tetrahydrofuran-3-yl)phenoxy)acetohydrazide]","severity index (EAE, 0 to 5 scale)","[1]; 25 mg/kg orally daily from 17 to 37 days, at 17 days (start of administration)",3±1
same,"severity index (EAE, 0 to 5 scale)","[1]; 25 mg/kg orally daily from 17 to 37 days, at 39 days, vehicle 2.5±0.75",1.25±0.75
same,"severity index (EAE, 0 to 5 scale)","[1]; 25 mg/kg orally daily from 17 to 37 days, at 55 days",1.17±0.75
same,"severity index (EAE, 0 to 5 scale)","[1]; 25 mg/kg orally daily from 17 to 37 days, at 101 days, vehicle 2.33±0.25",1.83±0.5
same,"severity index (EAE, 0 to 5 scale)","[1]; 50 mg/kg orally daily from 17 to 37 days, at 17 days (start of administration)",3±0.75
same,"severity index (EAE, 0 to 5 scale)","[1]; 50 mg/kg orally daily from 17 to 37 days, at 39 days, vehicle 2.5±0.75",0.9±0.25
same,"severity index (EAE, 0 to 5 scale)","[1]; 50 mg/kg orally daily from 17 to 37 days, at 101 days, vehicle 2.33±0.25",0.63±0.25
same,EC50,Jurkat,0.62 µmol/L
same,cytotoxicity at 5 µM,Jurkat T cells,100%
